Source: PubChem BioAssay AID2060891 (Molecular Pharmacology Branch, DTP, NCI, 2025)
pIC50: −log10 of the molar value.

Test system: K98450-129-R-PDC complex spheroid growth, percent test/control
Test: Anticancer human tumor K98450-129-R-PDC patient-derived colon adenocarcinoma cell line growth inhibition [RAS]
Conditions: for pIC50: curve of first compound; for viability, T/C: stronger effect = lower value; active = viability on the fitted dose curve at most 10% of control; inactive = the rest
How it was run: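 Multi-cell-type spheroids: tumor cells plus HUVEC endothelial cells and mesenchymal stem cells. RAS-pathway inhibitors were combined with targeted agents, each dosed in half-log steps down from clinical Cmax, or from 10 microM when Cmax was unknown.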

[1] = second compound 0.00316 µM, first compound 0.0316 µM
[2] = second compound 0.00316 µM, first compound 0.1 µM
[3] = second compound 0.00316 µM, first compound 0.316 µM
[4] = second compound 0.00316 µM, first compound 1 µM
[5] = second compound 0.00316 µM, first compound 3.16 µM
[6] = second compound 0.00316 µM, first compound 10 µM
[7] = second compound 0.01 µM, first compound 0.0316 µM
[8] = second compound 0.01 µM, first compound 0.1 µM
[9] = second compound 0.01 µM, first compound 0.316 µM
[10] = second compound 0.01 µM, first compound 1 µM
[11] = second compound 0.01 µM, first compound 3.16 µM
[12] = second compound 0.01 µM, first compound 10 µM
[13] = second compound 0.0316 µM, first compound 0.0316 µM
[14] = second compound 0.0316 µM, first compound 0.1 µM
[15] = second compound 0.0316 µM, first compound 0.316 µM
[16] = second compound 0.0316 µM, first compound 1 µM
[17] = second compound 0.0316 µM, first compound 3.16 µM
[18] = second compound 0.0316 µM, first compound 10 µM
[19] = second compound 0.1 µM, first compound 0.0316 µM
[20] = second compound 0.1 µM, first compound 0.1 µM
[21] = second compound 0.1 µM, first compound 0.316 µM
[22] = second compound 0.1 µM, first compound 1 µM
[23] = second compound 0.1 µM, first compound 3.16 µM
[24] = second compound 0.1 µM, first compound 10 µM
[25] = second compound 0.316 µM, first compound 0.0316 µM
[26] = second compound 0.316 µM, first compound 0.1 µM
[27] = second compound 0.316 µM, first compound 0.316 µM
[28] = second compound 0.316 µM, first compound 1 µM
[29] = second compound 0.316 µM, first compound 3.16 µM
[30] = second compound 0.316 µM, first compound 10 µM
[31] = second compound 1 µM, first compound 0.0316 µM
[32] = second compound 1 µM, first compound 0.1 µM
[33] = second compound 1 µM, first compound 0.316 µM
[34] = second compound 1 µM, first compound 1 µM
[35] = second compound 1 µM, first compound 3.16 µM
[36] = second compound 1 µM, first compound 10 µM
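Note: spheroids exposed to agents for seven days before the viability readout.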
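Throughout, for viability, T/C: luminescence used as a proxy for viable cell amount.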

CC1(O)CCCC1n1c(=O)c(C(F)F)cc2cnc(NC3CCN(S(C)(=O)=O)CC3)nc21 (stereo not given) + C=CC(=O)N1CCN(c2nc(OCC3CCCN3C)nc3c(F)c(-c4nc(N)cc(C)c4C(F)(F)F)c(Cl)cc23)C(C)C1
inactive: viability, T/C [1] 97.1% | viability, T/C [2] 90.5% | viability, T/C [3] 80.8% | viability, T/C [4] 71.1% | viability, T/C [5] 56.2% | viability, T/C [6] 49.1% | viability, T/C [7] 86.1% | viability, T/C [8] 81.3% | viability, T/C [9] 71.2% | viability, T/C [10] 65.5% | viability, T/C [11] 45% | viability, T/C [12] 41.2% | viability, T/C [13] 74.9% | viability, T/C [14] 70.2% | viability, T/C [15] 57.9% | viability, T/C [16] 47.5% | viability, T/C [17] 34.4% | viability, T/C [18] 32% | viability, T/C [19] 55.9% | viability, T/C [20] 55.6% | viability, T/C [21] 48.2% | viability, T/C [22] 34% | viability, T/C [23] 26.9% | viability, T/C [24] 22% | viability, T/C [25] 45.2% | viability, T/C [26] 42.1% | viability, T/C [27] 33% | viability, T/C [28] 27.6% | viability, T/C [29] 21.7% | viability, T/C [30] 18.9% | viability, T/C [31] 31.7% | viability, T/C [32] 33.7% | viability, T/C [33] 26.6% | viability, T/C [34] 21% | viability, T/C [35] 19.4% | viability, T/C [36] 16.1%
5.08: pIC50 (second compound 0.00316 µM)
6.64: pIC50 (second compound 0.1 µM)
5.56: pIC50 (second compound 0.01 µM)
> 7.50: pIC50 (second compound 0.316 µM) | pIC50 (second compound 1 µM)
6.16: pIC50 (second compound 0.0316 µM)

CCC(CC)c1cc(NC2CCC(N)C2)n2nccc2n1 (stereo not given) + C=CC(=O)N1CCN(c2nc(OCC3CCCN3C)nc3c(F)c(-c4nc(N)cc(C)c4C(F)(F)F)c(Cl)cc23)C(C)C1
5.29: pIC50 (second compound 0.00316 µM)
inactive: viability, T/C [1] 97.6% | viability, T/C [2] 93.8% | viability, T/C [3] 91.5% | viability, T/C [4] 87.3% | viability, T/C [5] 78.2% | viability, T/C [6] 13.5% | viability, T/C [7] 88.2% | viability, T/C [8] 86.8% | viability, T/C [9] 84.6% | viability, T/C [10] 85.8% | viability, T/C [11] 66.2% | viability, T/C [12] 15.1% | viability, T/C [13] 78.6% | viability, T/C [14] 73.3% | viability, T/C [15] 73.1% | viability, T/C [16] 60.4% | viability, T/C [17] 51.3% | viability, T/C [19] 48.2% | viability, T/C [20] 55.4% | viability, T/C [21] 51.9% | viability, T/C [22] 54.3% | viability, T/C [23] 34.1% | viability, T/C [25] 38.4% | viability, T/C [26] 38.9% | viability, T/C [27] 41% | viability, T/C [28] 37.3% | viability, T/C [29] 16.4% | viability, T/C [31] 32% | viability, T/C [32] 31.9% | viability, T/C [33] 33.3% | viability, T/C [34] 25.3% | viability, T/C [35] 11.1%
> 7.50: pIC50 (second compound 0.316 µM) | pIC50 (second compound 1 µM)
5.93: pIC50 (second compound 0.1 µM)
5.56: pIC50 (second compound 0.0316 µM)
active: viability, T/C [18] 8.93% | viability, T/C [24] 8.77% | viability, T/C [30] 7.47% | viability, T/C [36] 8.2%
5.34: pIC50 (second compound 0.01 µM)

CCN1CCN(Cc2ccc(Nc3ncc(F)c(-c4cc(F)c5nc(C)n(C(C)C)c5c4)n3)nc2)CC1 + C=CC(=O)N1CCN(c2nc(OCC3CCCN3C)nc3c(F)c(-c4nc(N)cc(C)c4C(F)(F)F)c(Cl)cc23)C(C)C1
7.18: pIC50 (second compound 0.0316 µM)
6.29: pIC50 (second compound 0.00316 µM)
7.69: pIC50 (second compound 0.1 µM)
6.75: pIC50 (second compound 0.01 µM)
> 8.50: pIC50 (second compound 0.316 µM) | pIC50 (second compound 1 µM)
inactive: viability, T/C (second compound 0.00316 µM, first compound 0.00316 µM) 95% | viability, T/C (second compound 0.00316 µM, first compound 0.01 µM) 97.3% | viability, T/C [1] 81.8% | viability, T/C [2] 75.2% | viability, T/C [3] 48.7% | viability, T/C [4] 47.8% | viability, T/C (second compound 0.01 µM, first compound 0.00316 µM) 90.8% | viability, T/C (second compound 0.01 µM, first compound 0.01 µM) 86.8% | viability, T/C [7] 73.7% | viability, T/C [8] 57.8% | viability, T/C [9] 42.3% | viability, T/C [10] 36.2% | viability, T/C (second compound 0.0316 µM, first compound 0.00316 µM) 73.3% | viability, T/C (second compound 0.0316 µM, first compound 0.01 µM) 68.3% | viability, T/C [13] 62.5% | viability, T/C [14] 43.2% | viability, T/C [15] 32.4% | viability, T/C [16] 31.9% | viability, T/C (second compound 0.1 µM, first compound 0.00316 µM) 60.2% | viability, T/C (second compound 0.1 µM, first compound 0.01 µM) 55.1% | viability, T/C [19] 46.6% | viability, T/C [20] 36.6% | viability, T/C [21] 27% | viability, T/C [22] 29.2% | viability, T/C (second compound 0.316 µM, first compound 0.00316 µM) 44.4% | viability, T/C (second compound 0.316 µM, first compound 0.01 µM) 41.2% | viability, T/C [25] 33.1% | viability, T/C [26] 27.9% | viability, T/C [27] 24.2% | viability, T/C [28] 28.4% | viability, T/C (second compound 1 µM, first compound 0.00316 µM) 31.8% | viability, T/C (second compound 1 µM, first compound 0.01 µM) 32.1% | viability, T/C [31] 28.7% | viability, T/C [32] 24.3% | viability, T/C [33] 24.6% | viability, T/C [34] 29.2%

C[C@@H](NC(=O)c1ncnc(N)c1Cl)c1ncc(C(=O)Nc2cc(C(F)(F)F)c(Cl)cn2)s1 + C=CC(=O)N1CCN(c2nc(OCC3CCCN3C)nc3c(F)c(-c4nc(N)cc(C)c4C(F)(F)F)c(Cl)cc23)C(C)C1
inactive: viability, T/C [1] 101% | viability, T/C [2] 98.6% | viability, T/C [3] 102% | viability, T/C [4] 108% | viability, T/C [5] 115% | viability, T/C [6] 94% | viability, T/C [7] 91.2% | viability, T/C [8] 92.5% | viability, T/C [9] 89.5% | viability, T/C [10] 97.4% | viability, T/C [11] 94.3% | viability, T/C [12] 80.1% | viability, T/C [13] 76.3% | viability, T/C [14] 80.2% | viability, T/C [15] 76.3% | viability, T/C [16] 77.2% | viability, T/C [17] 80% | viability, T/C [18] 65.1% | viability, T/C [19] 63.8% | viability, T/C [20] 66.6% | viability, T/C [21] 59.2% | viability, T/C [22] 64.8% | viability, T/C [23] 69.9% | viability, T/C [24] 56.3% | viability, T/C [25] 44.2% | viability, T/C [26] 50.4% | viability, T/C [27] 52.1% | viability, T/C [28] 49.9% | viability, T/C [29] 57% | viability, T/C [30] 46.1% | viability, T/C [31] 37.1% | viability, T/C [32] 41.3% | viability, T/C [33] 44.6% | viability, T/C [34] 44.6% | viability, T/C [35] 49.7% | viability, T/C [36] 43.5%
> 7.50: pIC50 (second compound 0.316 µM) | pIC50 (second compound 1 µM)
< 5.00: pIC50 (second compound 0.00316 µM) | pIC50 (second compound 0.01 µM) | pIC50 (second compound 0.0316 µM) | pIC50 (second compound 0.1 µM)

Cc1nc(N2CCC3(CC2)COC(C)C3N)c(CO)nc1Sc1ccnc(N)c1Cl (stereo not given) + C=CC(=O)N1CCN(c2nc(OCC3CCCN3C)nc3c(F)c(-c4nc(N)cc(C)c4C(F)(F)F)c(Cl)cc23)C(C)C1
inactive: viability, T/C [1] 88.3% | viability, T/C [2] 87.9% | viability, T/C [3] 66.2% | viability, T/C [4] 34.3% | viability, T/C [5] 10.5% | viability, T/C [7] 82.9% | viability, T/C [8] 69.6% | viability, T/C [9] 44.6% | viability, T/C [10] 11.6% | viability, T/C [13] 61.2% | viability, T/C [14] 47.6% | viability, T/C [15] 20.9% | viability, T/C [19] 40.2% | viability, T/C [20] 20.5% | viability, T/C [21] 11% | viability, T/C [25] 23.4% | viability, T/C [26] 14.7% | viability, T/C [27] 10.1% | viability, T/C [31] 21.6% | viability, T/C [32] 15.2% | viability, T/C [33] 10.9%
active: viability, T/C [6] 7.72% | viability, T/C [11] 9.41% | viability, T/C [12] 7.24% | viability, T/C [16] 9.03% | viability, T/C [17] 9.29% | viability, T/C [18] 7.4% | viability, T/C [22] 8.4% | viability, T/C [23] 8.28% | viability, T/C [24] 7.55% | viability, T/C [28] 9.11% | viability, T/C [29] 8.21% | viability, T/C [30] 7.31% | viability, T/C [34] 8.92% | viability, T/C [35] 8.81% | viability, T/C [36] 7.65%
> 7.50: pIC50 (second compound 0.1 µM) | pIC50 (second compound 0.316 µM) | pIC50 (second compound 1 µM)
7.08: pIC50 (second compound 0.0316 µM)
6.24: pIC50 (second compound 0.00316 µM)
6.63: pIC50 (second compound 0.01 µM)
